# Experiments:
# [1] = test system: anaesthetized dogs with open thorax; experiment: Nitrate interaction in anaesthetized dogs with open thorax (i.v. infusion of isosorbitol dinitrate); format: in vivo, dog; settings: i.d., permanent i.v. infusion of isosorbitol dinitrate 50 μg/kg of body weight/hour
# Method: Investigations of Nitrate Interaction of EMD 221829 and Sildenafil
# The model and administration are as in B, but both test substances are administered with simultaneous permanent i.v. infusion of isosorbitol dinitrate (50 μg/kg of body weight/hour).
# [2] = test system: spontaneously hypertensive rats; experiment: Nitrate interaction in spontaneously hypertensive rats; format: in vivo, rat; settings: i.v. cumulative 0.1, 0.3, 1, 3 or 10 mg/kg; infusion of isosorbitol dinitrate 100 μg/kg of body weight/hour
# Method: Nitrate Interaction in Spontaneously Hypertensive Rats
# Method: surgical instrumentation and measurement of blood pressure and heart rate after intravenous cumulative administration of either EMD 221829 or sildenafil (0.1, 0.3, 1, 3 or 10 mg/kg of body weight) with simultaneous infusion of isosorbitol dinitrate (100 μg/kg of body weight/hour).
# [3] = test system: normotensive Wistar rats; experiment: Telemetric measurements of blood pressure and heart rate over 24 hours in normotensive Wistar rats; format: in vivo, rat; settings: 30, 100 and 300 mg/kg p.o.; telemetry over 24 hours
# [4] = test system: anaesthetized dogs with closed thorax; experiment: Erectile function in anaesthetized dogs with closed thorax (pressure in corpus cavernosum rigidum); format: in vivo, dog; settings: 1 mg of substance/1 kg of body weight i.d.; erection initiated by stimulation of the nervus pelvinus
# Method: (§1) All dose amounts are i.d. (intraduodenal), unless stated otherwise.
# (§2) Measurements of Erectile Function in Anaesthetized Dogs with Closed Thorax
# Erections of various extent were initiated by stimulation variation of the nervus pelvinus. The pressure in the corpus cavernosum rigidum [CCR] was measured.
# [5] = test system: spontaneously hypertensive rats; experiment: Telemetric measurements of blood pressure and heart rate over 24 hours in spontaneously hypertensive rats; format: in vivo, rat; settings: 3, 10 and 30 mg/kg p.o.; telemetry over 24 hours
# Method: Telemetric Measurements of Blood Pressure and Heart Rate Over 24 Hours in Spontaneously Hypertensive Rats
# Measurements of 3, 10 and 30 mg of substance/1 kg of body weight/p.o.
# [6] = test system: anaesthetized dogs with open thorax; experiment: Haemodynamics in anaesthetized dogs with open thorax; format: in vivo, dog
# Source text: as §1
# [7] = test system: anaesthetized dogs with closed thorax; experiment: Blood pressure and heart rate measured at the same time in anaesthetized dogs with closed thorax; format: in vivo, dog; settings: 1 mg/kg i.d.
# Method: as §1, §2
# At the same time, the blood pressure and heart rate were measured.
# [8] = "in this dose" (100 mg of substance/1 kg of body weight) i.d.
SMILES,changes in blood pressure and heart rate with simultaneous administration of nitrate [1],blood pressure [2],heart rate [2],blood pressure [3],heart rate [3],stimulation of erection (pressure in the corpus cavernosum rigidum) [4],blood pressure [5],haemodynamic parameters compared with sildenafil ([6]; 1 mg of substance/1 kg of body weight i.d.),cardiovascular side effects (reduction in blood pressure with reflex increase in heart rate) ([6]; i.d.),dose from which effects on the blood pressure and heart rate are measurable ([6]; i.d.),effect on haemodynamic parameters (blood pressure and heart rate) [7],"blood pressure [6, 8]","heart rate [6, 8]"
"COc1ccc(CNc2nc(C3CCC(C(=O)O)CC3)nc3sc4ccccc4c23)cc1Cl.NCCO (stereo not drawn) [EMD 221829, trans-4-[4-(3-chloro-4-methoxybenzylamino)benzo[4,5]-thieno[2,3-d]pyrimidin-2-yl]cyclohexanecarboxylic acid, ethanolamine salt]",no changes,no change,no change,no changes,no changes,stimulates submaximal erection,no change,clear difference,no cardiovascular side effects,≥ 100 mg of substance/1 kg of body weight,no effect,–,–
"CCCc1nn(C)c2c(=O)[nH]c(-c3cc(S(=O)(=O)N4CCN(C)CC4)ccc3OCC)nc12 [sildenafil, reference compound]",significantly increased,dose-dependent drop,increase,significant dose-dependent reduction,increase,Corresponding results,significant dose-dependent reduction,–,–,–,–,reduction,increase

# Reference: US20030022906A1, “Use of pde v inhibitors” (priority 2000, published 2003)
